pIC50: −log10 of the molar value. Read-outs that look alike come from different tables or passages of the source.
Key:
[1] = U.S. Pat. No. 4,831,034; cited from earlier work
[2] = system: apomorphine-induced vomiting; assay: Antagonistic effect on apomorphine-induced vomiting; format: in vivo, dogs (Beagle)
Method in brief: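 Beagle dogs (8–15 kg, 3–4 per group) received test compound, then 0.3 mg/kg apomorphine hydrochloride s.c. two hours later. Vomiting episodes counted over 1 h; percent inhibition calculated against a non-dosed control group.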

[3] = target: T1, dopamine (D2) receptor (Rattus norvegicus, UniProt P61169); assay: In vitro binding to dopamine (D2) receptor, [3H] spiperone; design: species or system rats; settings: for pIC50: [3H] spiperone, rat brain crude synaptosome fraction, read-out: IC50 D2
T1 construct: Crude synaptosome fractions were prepared from some brain regions in rats for receptor sources; from tissue
Method: (§1) Dopamine (D2), serotonin (S1, S2) and adrenaline (α1) receptor binding assays were carried out according to the methods of I. Creese et al. [Eur. J. Pharmacol., 46, 377 (1977), S. J. Peroutka et al. [Mol. Pharmacol. 16, 687 (1979)], J. E. Leysen et al. [Mol. Pharmacol., 21, 301 (1982)] and D. C. U'Prichard et al. [Mol. Pharmacol., 13, 454 (1977)], respectively.
(§2) Crude synaptosome fractions were prepared from some brain regions in rats for receptor sources. Radioactive ligands used were [^3 H] spiperone (D2), [^3 H] serotonin (S1), [^3 H] ketanserin (S2) and [^3 H] WB-4101 (α1). The binding assay was performed by incubating aliquots of synaptosome fraction in buffer solution (final volume: 1 ml) containing a [^3 H] labelled ligand and a test compound. The assay was terminated by rapid filtration through Whatman GF/B glass fiber filters attached to a cell-harvester (Brandel) and radioactivity on the filters was counted in a Packard Triscarb scintillation counter. Specific binding was calculated as a difference between amounts of radioactivity in the presence and absence of an unlabelled ligand [spiperone (D2), serotonin (S1), methysergide (S2) and prazosin (α1)]. The IC50 value of the test compounds (concentration causing 50% inhibition of [^3 H] ligand specific binding) was determined by probit analysis.

[4] = target: T2, serotonin (S2) receptor (Rattus norvegicus, UniProt P14842); assay: In vitro binding to serotonin (S2) receptor, [3H] ketanserin; design: species or system rats; settings: for pIC50: [3H] ketanserin, rat brain crude synaptosome fraction
T2 construct: Crude synaptosome fractions were prepared from some brain regions in rats for receptor sources; from tissue
Method: as §1, §2

[5] = target: adrenaline (α1) receptor; assay: In vitro binding to adrenaline (α1) receptor, [3H] WB-4101; design: species or system rats; settings: [3H] WB-4101, rat brain crude synaptosome fraction
Method: as §1, §2

[6] = system: mice; assay: Acute toxicity; format: in vivo, mice (Std-ddy strain); settings: dose 500 mg/kg oral, 7 days observation
From the text: A group of 5 male mice (Std-ddy strain, 25-30 g) was used. The test compound was orally administered to the test animal in the form of a 0.5% tragacanth solution or suspension, and for 7 days after the administration of the test compound, the lethality of animals was observed.

[7] = system: brain monoamine metabolites; assay: Increasing effect on concentration of brain monoamine metabolites; format: in vivo, mice (Std-ddy strain); settings: Mus musculus, 2 h, non-dosed=100
Method in brief: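 Male Std-ddy mice (25-30 g, n=5) decapitated 2 h after dosing; brain extracts analysed by HPLC with electrochemical detection for DOPAC, HVA, MOPEG and 5-HIAA. Values expressed as % of non-dosed controls (=100).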

[8] = target: serotonin (S1) receptor; assay: In vitro binding to serotonin (S1) receptor, [3H] serotonin; design: species or system rats; settings: rat brain crude synaptosome fraction
Method: as §1, §2

[9] = Psychotropic / anti-psychotic (neuroleptic) activity, general statement; settings: experiments by the present inventors
[10] = Canis lupus familiaris, sc, apomorphine 0.3 mg/kg s.c. 2 h after compound, read-out: Inhibitory ratio (apomorphine-induced vomiting)
[11] = read-out: DOPAC concentration, % of control
[12] = read-out: HVA concentration, % of control
[13] = read-out: 5-HIAA concentration, % of control
[14] = read-out: MOPEG concentration, % of control

T2 sequence (P14842 whole entry): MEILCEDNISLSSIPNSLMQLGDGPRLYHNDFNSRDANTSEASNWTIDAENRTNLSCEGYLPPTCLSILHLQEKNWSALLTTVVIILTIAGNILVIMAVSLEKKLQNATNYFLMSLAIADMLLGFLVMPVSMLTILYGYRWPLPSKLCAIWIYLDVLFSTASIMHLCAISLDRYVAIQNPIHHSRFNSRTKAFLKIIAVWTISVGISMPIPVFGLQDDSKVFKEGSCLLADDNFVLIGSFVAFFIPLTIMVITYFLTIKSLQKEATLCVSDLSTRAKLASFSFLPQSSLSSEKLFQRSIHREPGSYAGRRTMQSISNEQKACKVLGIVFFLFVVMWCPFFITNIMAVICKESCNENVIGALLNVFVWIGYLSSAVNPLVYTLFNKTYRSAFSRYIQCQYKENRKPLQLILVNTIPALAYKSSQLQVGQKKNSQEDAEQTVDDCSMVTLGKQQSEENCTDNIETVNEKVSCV
T1 sequence (P61169 whole entry): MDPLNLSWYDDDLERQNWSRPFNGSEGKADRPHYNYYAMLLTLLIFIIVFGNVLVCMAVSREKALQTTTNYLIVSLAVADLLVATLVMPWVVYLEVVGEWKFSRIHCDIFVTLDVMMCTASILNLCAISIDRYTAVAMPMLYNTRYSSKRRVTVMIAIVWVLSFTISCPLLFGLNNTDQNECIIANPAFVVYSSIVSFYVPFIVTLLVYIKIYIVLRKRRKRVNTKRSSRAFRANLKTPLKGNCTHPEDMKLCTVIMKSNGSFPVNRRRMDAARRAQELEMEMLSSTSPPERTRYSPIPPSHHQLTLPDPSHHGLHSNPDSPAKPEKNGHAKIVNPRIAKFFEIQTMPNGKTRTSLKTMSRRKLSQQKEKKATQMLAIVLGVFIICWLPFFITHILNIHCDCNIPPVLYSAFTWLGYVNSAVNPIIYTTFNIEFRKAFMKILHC

Cc1ccc(CN2CCN(c3cc(-c4ccccc4)ccn3)CC2)cc1 [2-[4-(4-methylbenzyl)-1-piperazinyl]-4-phenylpyridine]
activity as an anti-psychotic drug or as a neuroleptic drug [1]: weak activity

CCN1CCN(c2cc(-c3ccc(F)cc3)c3c(n2)CCCCCC3)CC1 [Example 1a, 2-(4-ethyl-1-piperazinyl)-4-(4-fluorophenyl)-5,6,7,8,9,10-hexahydrocycloocta[b]pyridine]
inhibition in vivo at 0.2 mg/kg [2, 10]: 100%
pIC50 [3]: 7.62
pIC50 [4]: 8.00
pIC50 [5]: 7.08
Number of dead animals / Number of test animals [6]: 0/5

CCN1CCN(c2cc(-c3ccc(F)cc3F)c3c(n2)CCCCCC3)CC1 [Example 2b, 2-(4-ethyl-1-piperazinyl)-4-(2,4-difluorophenyl)-5,6,7,8,9,10-hexahydrocycloocta[b] pyridine]
inhibition in vivo at 0.2 mg/kg [2, 10]: 100%
response vs control in vivo at 2 mg/kg [7, 11]: 364%
response vs control in vivo at 2 mg/kg [7, 12]: 271%
Number of dead animals / Number of test animals [6]: 0/5

CCN1CCN(c2cc(-c3ccc(F)cc3)c3c(n2)CCC3)CC1 [Example 6, 2-(4-Ethyl-1-piperazinyl)-4-(4-fluorophenyl)-6,7-dihydro-5H-1-pyrindine]
inhibition in vivo at 1 mg/kg ([2]; Canis lupus familiaris, sc, dose 1.0 mg/kg, apomorphine 0.3 mg/kg s.c. 2 h after compound, read-out: Inhibitory ratio (apomorphine-induced vomiting)): 89%
pIC50 [3]: 7.72
pIC50 [8]: 5.82
pIC50 [4]: 8.12
pIC50 [5]: 8.16
response vs control in vivo at 10 mg/kg [7, 13]: 103%
response vs control in vivo at 10 mg/kg [7, 11]: 321%
response vs control in vivo at 10 mg/kg [7, 12]: 242%
response vs control in vivo at 10 mg/kg [7, 14]: 115%
Number of dead animals / Number of test animals [6]: 0/5

CCN1CCN(c2cc(-c3ccc(F)cc3)c3c(n2)CCCCC3)CC1 [Example 25, 2-(4-Ethyl-1-piperazinyl)-4-(4-fluorophenyl)-6,7,8,9-tetrahydro-5H-cyclohepta[b]pyridine]
inhibition in vivo at 3 mg/kg ([2]; Canis lupus familiaris, sc, dose 3.0 mg/kg, apomorphine 0.3 mg/kg s.c. 2 h after compound, read-out: Inhibitory ratio (apomorphine-induced vomiting)): 100%
pIC50 [3]: 7.11
pIC50 [8]: 5.59
pIC50 [4]: 8.64
pIC50 [5]: 6.92
response vs control in vivo at 1 mg/kg [7, 13]: 113%
response vs control in vivo at 1 mg/kg [7, 11]: 272%
response vs control in vivo at 1 mg/kg [7, 12]: 207%
response vs control in vivo at 1 mg/kg [7, 14]: 106%
Number of dead animals / Number of test animals [6]: 0/5

Cc1nc(N2CCN(c3ccccc3)CC2)cc(-c2ccc(F)cc2)c1-c1ccc(F)cc1 [Test Compound A, 4,5-Bis-(4-fluorophenyl)-6-methyl-2-(4-phenylpiperazino)pyridine, reference compound]
inhibition in vivo at 3 mg/kg ([2]; Canis lupus familiaris, sc, 2 h, read-out: Inhibitory ratio (apomorphine-induced vomiting)): 11%
effect on apomorphine-induced vomiting (in words) ([2]; dog, in vivo): no inhibitory effect
binding property to dopamine (D2) receptors (in words) [3]: no binding property
pIC50 [3]: < 5.00
binding property to serotonin (S2) receptors (in words) [4]: no binding property
pIC50 [4]: < 5.00
pIC50 [5]: < 5.00
psychotropic activity [9]: did not show any psychotropic activity

Reference: patent US5021421A, “2-(1-Piperazinyl)-4-phenylcycloalkanopyridine derivatives, processes for the production thereof, and pharmaceutical composition containing the same” (Dainippon Pharmaceutical Co., Ltd., priority 1989, dated 1991)
